Results reported in US10023565B2, “N,N′ substituted piperidinamine compounds, and preparation method and usage thereof” (Institute of Pharmacology and Toxicology Academy of …, priority 2013, dated 2018).

How the values were obtained:
Experiment in all cases: Antitumor bioactivity evaluation, breast cancer cells (ATPlite)
BT474 = assay type: cell-based; conditions: Homo sapiens, BT-474; test sample 5 μM, 72 hours; read-out: Inhibitory Rate % BT474
Experimental: (§1) Antitumor bioactivity evaluation of the compounds of Examples according to the method described below
(§2) Cells plating: a 100 mm culture dish with overgrown adherent cells was digested with 1 ml 0.25% trypsin (GIBCO) at 37° C. for 5 min, and the reaction was terminated with 2 ml culture medium (containing 10% FBS, GIBCO). The cells were scattered and collected, after counting, diluted to 1×10^5 cells/ml, and seeded into a 96-well plate at 50 μl/well, 5000 cells/well, excluding the peripheral circle of wells in which no cell was added, but PBS was added, 60 wells in total, and then incubated at 37° C. for 24 hours for adhering.
(§3) Addition of the compound and lapatinib: the test sample was diluted to a final concentration of 5 μM, and the culture medium with the corresponding compound solvent concentration was filled in the control well, the compound solvent concentration was kept consistent in each well, 5 parellel wells were set for each concentration, 25 μl each well, 25 μl culture medium (in combined group, 25 μl lapatinib was added till a final concentration of 1 μM) supplemented, followed by incubation at 37° C. for 72 hours.
(§4) Test after incubation at 37° C. for 72 hours: 50 μL of ATPlite kit substrate solution was added in each well, and vibrated for 3 min, followed by placing aside in darkness for 10 min, and then supernatant 100 μl/well was taken and placed on aluminescence test plate; the luminescence test plate that has been fully incubated was placed in a luminescence test instrument, to read luminescence value.
(§5) 1. Cell survival rate (%)=Experimental group RLU/control group RLU×100%. The experimental data were subjected to data analysis and processing by utilizing GraphPad software.

MDA-MB-361 = assay type: cell-based; conditions: Homo sapiens, test sample 5 μM, 72 hours, read-out: Inhibitory Rate % MDA-MB-361
Experimental: as §1, §2, §3, §4, §5

MDA-MB-453 = assay type: cell-based; conditions: Homo sapiens, test sample 5 μM, 72 hours, read-out: Inhibitory Rate % MDA-MB-453
Experimental: as §1, §2, §3, §4, §5

SK-BR3 = assay type: cell-based; conditions: Homo sapiens, SK-BR-3; test sample 5 μM, 72 hours; read-out: Inhibitory Rate % SK-BR3
Experimental: as §1, §2, §3, §4, §5

SK/Lap^R1.0 = assay type: cell-based; conditions: Homo sapiens; test sample 5 μM, 72 hours; read-out: Inhibitory Rate % SKLap^R1.0
Experimental: as §1, §2, §3, §4, §5

BT/Lap^R1.0 = assay type: cell-based, human; conditions: Homo sapiens; test sample 5 μM, 72 hours; read-out: Inhibitory Rate % BT/Lap^R1.0
Experimental: as §1, §2, §3, §4, §5

Row | Compound | inhibition at 5 µM (BT474) [%] | inhibition at 5 µM (MDA-MB-361) [%] | inhibition at 5 µM (MDA-MB-453) [%] | inhibition at 5 µM (SK-BR3) [%] | inhibition at 5 µM (SK/Lap^R1.0) [%] | inhibition at 5 µM (BT/Lap^R1.0) [%]
1 | CCOc1ncc(CN2CCC(N(C)Cc3cccc(Cl)c3)CC2)s1 [Example 1, N-methyl-N-m-chlorobenzyl-N-{1-[(2-ethoxythiazol-5-yl)methyl]piperidin-4-yl}amine] | 14.4 | 14.2 | 41.2 | 16.7 | 5.2 | 12.5
2 | CCOc1ncc(CN2CCC(N(C)Cc3ccccc3C#N)CC2)s1 [Example 2, N-methyl-N-o-cyanobenzyl-N-{1-[(2-ethoxythiazol-5-yl)methyl]piperidin-4-yl}amine] | 17.6 | 12.3 | 43.8 | 13.6 | 7.2 | 19.4
3 | CCOc1ncc(CN2CCC(N(C)Cc3ccc(Cl)c(Cl)c3)CC2)s1 [Example 3, N-methyl-N-(3,4-dichlorobenzyl)-N-{1-[(2-ethoxythiazol-5-yl)methyl]piperidin-4-yl}amine] | 62.9 | 35.8 | 71.6 | 41.2 | 13.1 | 67.4
4 | CCOc1ncc(CN2CCC(N(C)Cc3ccc(C#N)cc3)CC2)s1 [Example 4, N-methyl-N-(4-cyanobenzyl)-N-{1-[(2-ethoxythiazol-5-yl)methyl]piperidin-4-yl}amine] | 61.7 | 51.3 | 70.5 | 45.5 | 6.7 | 66.1
5 | CCOc1ncc(CN2CCC(N(C)Cc3c(F)cccc3Cl)CC2)s1 [Example 5, N-methyl-N-(2-fluoro-6-chlorobenzyl)-N-{1-[(2-ethoxythiazol-5-yl)methyl]piperidin-4-yl} amine] | 54.4 | 32.8 | 67.4 | 40.9 | 11.7 | 50.5
6 | CCOc1ncc(CN2CCC(N(C)Cc3ccccc3Cl)CC2)s1 [Example 6, N-methyl-N-(2-chlorobenzyl)-N-{1-[(2-ethoxythiazol-5-yl)methyl]piperidin-4-yl}amine] | 10.1 | 33.3 | 36.4 | 12.6 | 0.6 | 13.3
7 | CCOc1ncc(CN2CCC(N(C)Cc3ccc(F)cc3)CC2)s1 [Example 7, N-methyl-N-(4-fluorobenzyl)-N-{[1-(2-ethoxythiazol-5-yl)methyl]piperidin-4-yl}amine] | 36.4 | 24.2 | 52.9 | 26 | 25.1 | 20.7
8 | CCOc1ncc(CN2CCC(N(C)Cc3ccc(Cl)cc3Cl)CC2)s1 [Example 8, N-methyl-N-(2,4-dichlorobenzyl)-N-{[1-(2-ethoxythiazol-5-yl)methyl]piperidin-4-yl}amine] | 70.3 | 49.2 | 71.3 | 41.6 | 12 | 65.9
9 | CCOc1ncc(CN2CCC(N(C)Cc3c(Cl)cccc3Cl)CC2)s1 [Example 9, N-methyl-N-(2,6-dichlorobenzyl)-N-{[1-(2-ethoxythiazol-5-yl)methyl]piperidin-4-yl}amine] | 38.2 | 24.5 | 51.5 | 17.9 | 5.1 | 25.6
10 | CCOc1ncc(CN2CCC(N(C)Cc3cc(Cl)ccc3Cl)CC2)s1 [Example 10, N-methyl-N-(2,5-dichlorobenzyl)-N-{[1-(2-ethoxythiazol-5-yl)methyl]piperidin-4-yl}amine] | 5.6 | 25.3 | 23.9 | 9.4 | 5.2 | 9.6
11 | Clc1ncc(CN2CCC(NCc3ccc(Cl)c(Cl)c3)CC2)s1 [Example 11, N-(3,4-dichlorobenzyl)-N-{1-[(2-chlorothiazol-5-yl)methyl]piperidin-4-yl}amine] | 11 | 13.9 | 32.9 | 26.3 | 25.1 | 10.6
12 | Clc1cccc(CNC2CCN(Cc3cnc(Cl)s3)CC2)c1 [Example 13, N-(3-chlorobenzyl)-N-{1-[(2-chlorothiazol-5-yl)methyl]piperidin-4-yl}amine] | 3.8 | 3.2 | 2.4 | 17.9 | 4.1 | 7.2
13 | CN(Cc1ccc(C#N)cc1)C1CCN(Cc2cnc(Cl)s2)CC1 [Example 15, N-methyl-N-(4-cyanobenzyl)-N-{1-[(2-chlorothiazol-5-yl)methyl]piperidin-4-yl}amine] | 69.3 | 35.6 | 68.5 | 41.5 | 7.5 | 68.7
14 | CN(Cc1ccc(F)cc1)C1CCN(Cc2cnc(Cl)s2)CC1 [Example 16, N-methyl-N-(4-fluorobenzyl)-N-{1-[(2-chlorothiazol-5-yl)methyl]piperidin-4-yl}amine] | 7.1 | -1.3 | 11 | 18.6 | -0.1 | 9
15 | CN(Cc1ccc(Cl)c(Cl)c1)C1CCN(Cc2cnc(Cl)s2)CC1 [Example 17, N-methyl-N-(3,4-dichlorobenzyl)-N-{1-[(2-chlorothiazol-5-yl)methyl]piperidin-4-yl}amine] | 45.4 | 42.9 | 63.8 | 34.3 | 5.3 | 53.4
16 | CN(Cc1cccc(Cl)c1)C1CCN(Cc2cnc(Cl)s2)CC1 [Example 18, N-methyl-N-(3-chlorobenzyl)-N-{1-[(2-chlorothiazol-5-yl)methyl]piperidin-4-yl}amine] | 7.1 | 9.7 | 12.6 | 15.5 | 8.5 | 8.4
17 | CN(Cc1c(F)cccc1Cl)C1CCN(Cc2cnc(Cl)s2)CC1 [Example 19, N-methyl-N-(2-fluoro-6-chlorobenzyl)-N-{[1-(2-chlorothiazol-5-yl)methyl]piperidin-4-yl}amine] | 10.6 | 10.4 | 22.4 | 9.8 | 1.5 | 3.2
18 | CN(Cc1ccc(Cl)cc1Cl)C1CCN(Cc2cnc(Cl)s2)CC1 [Example 20, N-methyl-N-(2,4-dichlorobenzyl)-N-{[1-(2-chlorothiazol-5-yl)methyl]piperidin-4-yl}amine] | 64.1 | 30.1 | 60.8 | 47.1 | 11.4 | 61.8
19 | Cc1ccccc1CN(C)C1CCN(Cc2cnc(Cl)s2)CC1 [Example 21, N-methyl-N-(2-methylbenzyl)-N-{[1-(2-chlorothiazol-5-yl)methyl]piperidin-4-yl}amine] | 1.5 | 4.4 | 3.5 | 9.7 | 5.1 | 4
20 | Cc1ccc(CN(C)C2CCN(Cc3cnc(Cl)s3)CC2)cc1 [Example 22, N-methyl-N-(4-methylbenzyl)-N-{[1-(2-chlorothiazol-5-yl)methyl]piperidin-4-yl}amine] | 14.2 | 10.9 | 29.6 | 26.2 | 8.4 | 16
21 | CN(Cc1cccc(F)c1)C1CCN(Cc2cnc(Cl)s2)CC1 [Example 23, N-methyl-N-(3-fluorobenzyl)-N-{[1-(2-chlorothiazol-5-yl)methyl]piperidin-4-yl}amine] | 2.4 | 3.2 | 4.4 | 4.2 | 1.3 | 5.7
